# In article PMC11357256, “Selectivity Screening and Structure–Cytotoxic Activity Observations of Selected Oleanolic Acid (OA)-Type Saponins from the Amaranthaceae Family on a Wiade Panel of Human Cancer Cell Lines” (Molecules, 2024):
# Experiments:
# Du-145 = experiment: MTT cell viability assay, Du-145 prostate carcinoma cells; type: cell-based; conditions: Homo sapiens
# Excerpt: (§1) Cell lines used in the study were grouped as follows: skin panel (melanomas: HTB140, derived from metastatic site: lymph node, ATCC Hs 294 T; malignant A375, ATCC CRL-1619; stage I primary WM793, RRID:CVCL 8787; skin keratinocytes HaCaT); prostate panel (prostate carcinomas: Du145, derived from metastatic site: brain, ATCC HTB-81; grade IV PC3, derived from metastatic site: bone, ATCC CRL-1435, LNCaP, derived from the metastatic site: lymph node, ATCC CRL-1740; prostate epithelial, PNT2, ECACC 95012613); gastrointestinal panel (colorectal adenocarcinomas: Caco2, ATCC HTB-37, HT29, ATCC HTB-38, DLD-1, ATCC CCL-221, HCT116, ATCC CCL-247, and colon epithelial cells CCD 841 CoN, ATCC CRL-1790; hepatocellular carcinoma HepG2, ATCC HB-8065); thyroid panel (follicular thyroid carcinoma FTC133, ECACC 9406090, undifferentiated thyroid carcinoma 8505C, ECACC 94090184, papillary thyroid carcinoma TPC-1, SCC147, normal thyroid follicular epithelial Nthy-ori 3–1, ECACC 90011609); and breast panel (ER-positive breast adenocarcinoma MCF7, ATCC HTB-22; ER-negative breast adenocarcinoma MDA-MB-231, ATCC HTB-26; breast epithelial MCF10A, ATCC CRL-10317). Cells were grown under standard conditions (37 °C, 5% CO2, relative humidity), and culture media (DMEM/F12 for PNT2, WM 793, HT29, PC3, FTC133, 8505 C, MDA-MB-231, TPC-1; DMEM Low Glucose for DU145; DMEM High Glucose for HTB140, A375, HaCaT; MEM with NEAA for Caco2 and MCF7; RPMI1640 with sodium pyruvate for LNCaP; DMEM/F12 with 20 ng/mL epidermal growth factor (EGF), 10 μg/mL insulin, 0.5 μg/mL hydrocortisone, 100 ng/mL cholera toxin) for MCF10A) supplemented with 10% fetal bovine serum (FBS) or 5% donor horse serum for MCF10A, and 1% antibiotics solution (10,000 U penicillin and 10 mg streptomycin/mL) […], as previously described. All cell lines, culture media, and supplements were from Sigma-Aldrich (Germany).
# (§2) The cells were seeded in 96-well plates (1.5 × 10^4 cells/well). After 24 h, fresh medium was added, containing the tested compounds (0.5–100 μg/mL) and incubated for 24 or 48 h. Cell viability was determined by MTT assay, according to the manufacturer’s instructions, as described previously. Each experiment was performed in triplicate. The absorbance was measured at 570 nm using a Biotek Synergy microplate reader (BioTek Instruments Inc., Winooski, VT, USA). Cell viability was expressed as a percent of control (untreated cells). Doxorubicin was used as a reference drug.
# PC3 = experiment: MTT cell viability assay, PC3 prostate carcinoma cells; type: cell-based; conditions: Homo sapiens, PC-3
# Excerpt: as §1, §2
# LNCaP = experiment: MTT cell viability assay, LNCaP prostate adenocarcinoma cells; type: cell-based; conditions: Homo sapiens
# Excerpt: as §1, §2
# PNT2 = experiment: MTT cell viability assay, PNT2 normal prostate epithelial cells; type: cell-based; conditions: Homo sapiens
# Excerpt: as §1, §2
# MDA-MB-231 = experiment: MTT cell viability assay, MDA-MB-231 breast adenocarcinoma cells; type: cell-based; conditions: Homo sapiens
# Excerpt: as §1, §2
# MCF7 = experiment: MTT cell viability assay, MCF7 breast adenocarcinoma cells; type: cell-based; conditions: Homo sapiens
# Excerpt: as §1, §2
# MCF10A = experiment: MTT cell viability assay, MCF10A normal breast epithelial cells; type: cell-based; conditions: Homo sapiens, MCF-10A
# Excerpt: as §1, §2
# FTC133 = experiment: MTT cell viability assay, FTC133 follicular thyroid carcinoma cells; type: cell-based, human; conditions: for IC50: Homo sapiens, FTC-133
# Excerpt: as §1, §2
# (§3) The selectivity index (SI) was calculated from the following formula:SI = IC50 of compound in a normal cell line/IC50 of compound in cancer cell line.IC50, half maximal inhibitory concentration, is a concentration required to kill 50% of the cells.
# 8505C = experiment: MTT cell viability assay, 8505C undifferentiated thyroid carcinoma cells; type: cell-based, human; conditions: for IC50: Homo sapiens, 8505C; for Selectivity Index (SI): IC50 Nthy-ori 3-1 / IC50 8505C
# Excerpt: as §1, §2, §3
# TPC-1 = experiment: MTT cell viability assay, TPC-1 papillary thyroid carcinoma cells; type: cell-based, human; conditions: for IC50: Homo sapiens, TPC1
# Excerpt: as §1, §2, §3
# Nthy-ori 3-1 = experiment: MTT cell viability assay, Nthy-ori 3-1 normal thyroid epithelial cells; type: cell-based; conditions: Homo sapiens
# Excerpt: as §1, §2
# Caco-2 = experiment: MTT cell viability assay, Caco-2 colon cancer cells; type: cell-based; conditions: Homo sapiens
# Excerpt: as §1, §2
# HT29 = experiment: MTT cell viability assay, HT29 colorectal adenocarcinoma cells; type: cell-based; conditions: Homo sapiens, HT-29
# Excerpt: as §1, §2
# HepG2 = experiment: MTT cell viability assay, HepG2 hepatocellular carcinoma cells; type: cell-based; conditions: Homo sapiens
# Excerpt: as §1, §2
# DLD-1 = experiment: MTT cell viability assay, DLD-1 colon cancer cells; type: cell-based; conditions: Homo sapiens
# Excerpt: as §1, §2
# HCT116 = experiment: MTT cell viability assay, HCT116 colon cancer cells; type: cell-based; conditions: Homo sapiens, HCT-116
# Excerpt: as §1, §2
# CCD 841 CoN = experiment: MTT cell viability assay, CCD 841 CoN normal colon epithelial cells; type: cell-based; conditions: Homo sapiens
# Excerpt: as §1, §2
# HTB-140 = experiment: MTT cell viability assay, HTB-140 metastatic melanoma cells; type: cell-based, human; conditions: for IC50: Homo sapiens; for Selectivity Index (SI): IC50 HaCaT / IC50 HTB-140, 24 h
# Excerpt: as §1, §2, §3
# A375 = experiment: MTT cell viability assay, A375 malignant melanoma cells; type: cell-based, human; conditions: for IC50: Homo sapiens, A-375; for Selectivity Index (SI): IC50 HaCaT / IC50 A375, 24 h
# Excerpt: as §1, §2, §3
# WM793 = experiment: MTT cell viability assay, WM793 primary melanoma cells; type: cell-based, human; conditions: for IC50: Homo sapiens
# Excerpt: as §1, §2, §3
# HaCaT = experiment: MTT cell viability assay, HaCaT keratinocytes; type: cell-based; conditions: Homo sapiens
# Excerpt: as §1, §2
# [1] = IC50 Nthy-ori 3-1 / IC50 FTC133, 24 h
# [2] = IC50 Nthy-ori 3-1 / IC50 TPC-1, 24 h
compound,measurement,setting,value
"CC1(C)CCC2(C(=O)O)CCC3(C)C(=CCC4C5(C)CCC(OC6OC(C(=O)O)C(O)C(OC7OCC(O)C(O)C7O)C6O)C(C)(C)C5CCC43C)C2C1 [MIc, oleanolic acid-3-O-[β-D-xylopyranosyl(1→3)-β-D-glucuronopyranoside]]",IC50,"Du-145; DU-145, 24 h",5.4 µg/mL
same,IC50,"Du-145; DU-145, 48 h",2.8 µg/mL
same,IC50,"PC3; PC3, 24 h",5.5 µg/mL
same,IC50,"PC3; PC3, 48 h",3.4 µg/mL
same,IC50,LNCaP; 24 h,> 100 µg/mL
same,IC50,LNCaP; 48 h,> 100 µg/mL
same,IC50,PNT2; 24 h,> 100 µg/mL
same,IC50,PNT2; 48 h,> 100 µg/mL
same,IC50,"MDA-MB-231; MDA-MB-231, 24 h",52.2 µg/mL
same,IC50,"MDA-MB-231; MDA-MB-231, 48 h",16.4 µg/mL
same,IC50,"MCF7; MCF7, 24 h",> 100 µg/mL
same,IC50,"MCF7; MCF7, 48 h",29.2 µg/mL
same,IC50,MCF10A; 24 h,> 100 µg/mL
same,IC50,MCF10A; 48 h,> 100 µg/mL
same,IC50,"FTC133; FTC133, 24 h",3.5 µg/mL
same,IC50,"FTC133; FTC133, 48 h",2.1 µg/mL
same,Selectivity Index (SI),FTC133; [1],24.85
same,Selectivity Index (SI),"FTC133; IC50 Nthy-ori 3-1 / IC50 FTC133, 48 h",30.7
same,IC50,8505C; 24 h,10.6 µg/mL
same,IC50,8505C; 48 h,5.2 µg/mL
same,Selectivity Index (SI),8505C; 24 h,8.2
same,Selectivity Index (SI),8505C; 48 h,12.2
same,IC50,"TPC-1; TPC-1, 24 h",39 µg/mL
same,IC50,"TPC-1; TPC-1, 48 h",39 µg/mL
same,Selectivity Index (SI),TPC-1; [2],2.2
same,Selectivity Index (SI),"TPC-1; IC50 Nthy-ori 3-1 / IC50 TPC-1, 48 h",1.6
same,IC50,Nthy-ori 3-1; 24 h,86.2 µg/mL
same,IC50,Nthy-ori 3-1; 48 h,64.4 µg/mL
same,IC50,"Caco-2; Caco-2, 24 h",7 µg/mL
same,IC50,"Caco-2; Caco-2, 48 h",4.3 µg/mL
same,IC50,"HT29; HT29, 24 h",4.2 µg/mL
same,IC50,"HT29; HT29, 48 h",2.9 µg/mL
same,IC50,"HepG2; HepG2, 24 h",12.5 µg/mL
same,IC50,"HepG2; HepG2, 48 h",9.5 µg/mL
same,IC50,"DLD-1; DLD-1, 24 h",16 µg/mL
same,IC50,"DLD-1; DLD-1, 48 h",8 µg/mL
same,IC50,"HCT116; HCT116, 24 h",9.4 µg/mL
same,IC50,"HCT116; HCT116, 48 h",8.3 µg/mL
same,IC50,CCD 841 CoN; 24 h,> 100 µg/mL
same,IC50,CCD 841 CoN; 48 h,> 100 µg/mL
same,IC50,"HTB-140; HTB-140, 24 h",7.8 µg/mL
same,IC50,"HTB-140; HTB-140, 48 h",3 µg/mL
same,Selectivity Index (SI),HTB-140,0.7
same,IC50,"A375; A375, 24 h",1.9 µg/mL
same,IC50,"A375; A375, 48 h",0.9 µg/mL
same,Selectivity Index (SI),A375,2.7
same,IC50,"WM793; WM793, 24 h",2 µg/mL
same,IC50,"WM793; WM793, 48 h",1 µg/mL
same,Selectivity Index (SI),"WM793; IC50 HaCaT / IC50 WM793, 24 h",2.6
same,Selectivity Index (SI),"WM793; IC50 HaCaT / IC50 WM793, 48 h",2.7
same,IC50,HaCaT; 24 h,5.3 µg/mL
same,IC50,HaCaT; 48 h,2.7 µg/mL
"COc1cccc2c1C(=O)c1c(O)c3c(c(O)c1C2=O)C[C@@](O)(C(=O)CO)C[C@@H]3O[C@H]1C[C@H](N)[C@H](O)[C@H](C)O1 [DOX, Doxorubicin]",IC50,"Du-145; DU-145, 24 h",3.2 µg/mL
same,IC50,"PC3; PC3, 24 h",> 50 µg/mL
same,IC50,LNCaP; 24 h,1.8 µg/mL
same,IC50,PNT2; 24 h,1.4 µg/mL
same,IC50,"FTC133; FTC133, 24 h",4 µg/mL
same,Selectivity Index (SI),FTC133; [1],6.76
same,IC50,8505C; 24 h,> 40 µg/mL
same,IC50,"TPC-1; TPC-1, 24 h",3.9 µg/mL
same,Selectivity Index (SI),TPC-1; [2],7.0
same,IC50,Nthy-ori 3-1; 24 h,27.2 µg/mL
same,IC50,"Caco-2; Caco-2, 24 h",3.4 µg/mL
same,IC50,"HT29; HT29, 24 h",1.5 µg/mL
same,IC50,"HepG2; HepG2, 24 h",1 µg/mL
same,IC50,"DLD-1; DLD-1, 24 h",1.1 µg/mL
same,IC50,"HCT116; HCT116, 24 h",4 µg/mL
same,IC50,CCD 841 CoN; 24 h,1.7 µg/mL
same,IC50,"HTB-140; HTB-140, 24 h",5.7 µg/mL
same,Selectivity Index (SI),HTB-140,0.8
same,IC50,"A375; A375, 24 h",0.6 µg/mL
same,Selectivity Index (SI),A375,7.9
same,IC50,"WM793; WM793, 24 h",> 40 µg/mL
same,IC50,HaCaT; 24 h,4.7 µg/mL
